We go through 33 compounds from PMC7911889 (Viruses, 2021).

Like-named read-outs stand apart in the source and are kept apart here. Non-standard residues stand in square brackets, D forms with d. Residues, ends and D or L forms follow the SMILES beside them. *: point of attachment. Nva = CCC[C@H](N)C(=O)O; Cbz = O=C(OCc1ccccc1)* Some results are limits rather than exact numbers.

One series is described as follows: in vitro. The following applies: human.
In the next series the test system is cell culture. The following applies: cited from earlier work.
Series [1] deals with 293T human embryonic kidney cells.
The test system of a further series is SARS-CoV-2. Also noted: method as in per compound as in References column of Table 1. The note with it: read-out: Reported EC50 for inhibition of SARS-CoV-2 replication in cell culture; cited from earlier work.
Setting [2] is: read-out: CC50, CellTiter-Glo 2.0 assay, transfected 293T cells, 30 h post-transfection.
[3] abbreviates: transfected 293T cells (human embryonic kidney).

As to `C=C[C@@H]1C[C@]1(NC(=O)[C@@H]1C[C@@H](Oc2ncc(OC)c3ccc(Cl)cc23)CN1C(=O)[C@@H](NC(=O)OC(C)(C)C)C(C)(C)C)C(=O)NS(=O)(=O)C1CC1` [Asunaprevir], the CC50 in “in vitro” was determined as 31.5 µM. On to `O=C1C(Cl)=C(NCCN2CCOCC2)C(=O)c2ncccc21` [DA-3003-1], for which the “Reported CC50 (corresponding to reported EC50)” value (“Reported CC50” below) with cell culture is 7.7 µM. The CC50 in series [1] (setting [2]) came out at 7.7 µM.

Regarding `O=C(Oc1cncc(Cl)c1)c1cccs1` [MAC 5576], the “Reported CC50” value in the series on cell culture is reported as above 100 µM. In series [1], this compound registered a CC50 above 100 µM. In general, EC50 refers to the concentration that produces a half-maximal response. Regarding `Cc1ccc(C(=O)Nc2ccc(S(=O)(=O)O)c3cc(S(=O)(=O)O)cc(S(=O)(=O)O)c23)cc1NC(=O)c1cccc(NC(=O)Nc2cccc(C(=O)Nc3cc(C(=O)Nc4ccc(S(=O)(=O)O)c5cc(S(=O)(=O)O)cc(S(=O)(=O)O)c45)ccc3C)c2)c1` [Suramin], the “Reported CC50” value with cell culture was >20–>5000. In addition, in the series “in vitro”, the CC50 is above 100 µM. The EC50 in the series on SARS-CoV-2 was 20 µM. Consider `O=c1c2ccccc2[se]n1-c1ccccc1` [Ebselen], for which the CC50 in the series “in vitro” amounted to 8 µM.

In the case of `CC(C)C[C@H](NC(=O)OCc1ccccc1)C(=O)N[C@@H](C[C@@H]1CCNC1=O)C(O)S(=O)(=O)[O-].[Na+]` (stereo partly drawn) [GC376], the “Reported CC50” value in the series with cell culture is reported as >100–>200. Further, the “Effect on cell viability (in words)” value in series [1] is “no significant effect on cell viability up to 100 µM”.

Regarding `CC(C)C[C@H](NC(=O)OCc1ccccc1)C(=O)N[C@@H](CC1CCNC1=O)C(O)S(=O)(=O)O` (stereo partly drawn) [GC376], the EC50 with SARS-CoV-2 is 0.2 to 4.5 µM. In addition, the CC50 in series [1] was above 100 µM.

On to `COc1ccc2cc(-c3cc(-c4cc(Cl)cc(Cl)c4)nn3[C@@H](C)c3ccc(C(=O)NCCC(=O)O)cc3)ccc2c1` [MK 0893], for which the “Reported CC50” value in the series on cell culture is listed as 12.6 µM. Also, the CC50 in “in vitro” amounted to 42.3 µM. In addition, in the series with SARS-CoV-2, the EC50 was 3.2 µM.

In the case of `CC(C)(C)NC(=O)[C@@H]1C[C@@H]2CCCC[C@@H]2CN1C[C@@H](O)[C@H](Cc1ccccc1)NC(=O)[C@H](CC(N)=O)NC(=O)c1ccc2ccccc2n1` [Saquinavir], in the series “in vitro”, the CC50 was 27.3 µM. As for `COC(=O)N[C@H](C(=O)N[C@@H](Cc1ccccc1)[C@@H](O)CN(Cc1ccc(-c2ccccn2)cc1)NC(=O)[C@@H](NC(=O)OC)C(C)(C)C)C(C)(C)C` [Atazanavir], the CC50 at 30 h post-transfection in “in vitro” is above 100 µM.

With `Cn1nc(-c2ccc(C(F)(F)F)cc2)nc2c(=O)n(C)c(=O)nc1-2` [Walrycin B], the “Reported CC50” value with cell culture was 4.3 µM. This compound yielded a CC50 in series [1] of 29 µM.

The compound `CCN(CC)CCCC(C)Nc1c2ccc(Cl)cc2nc2ccc(OC)cc12` (stereo not drawn) [Quinacrine] registered a CC50 in “in vitro” of 2.5 µM. With `CCCC(NC(=O)C(CC(C)C)NC(=O)OCc1ccccc1)C(=O)C(=O)NCc1ccccn1` (stereo not drawn) [Calpain Inhibitor XII], the “Reported CC50” value in the series on cell culture was above 100 µM. Also, the CC50 in series [1] is above 100 µM. For the compound `CC(NC(=O)[C@H](Cc1ccccc1)NC(=O)OCc1ccccc1)C(=O)CF` (stereo partly drawn) [Z-FA-FMK], the “Reported CC50” value with cell culture is above 20 µM. Further, the CC50 in series [1] (setting [2]) is above 100 µM.

On to `CC(C)(C)NC(=O)N[C@H](C(=O)N1C[C@H]2[C@@H]([C@H]1C(=O)NC(CC1CCC1)C(=O)C(N)=O)C2(C)C)C(C)(C)C` (stereo partly drawn) [Boceprevir], for which the “Reported CC50” value in the series with cell culture is listed as >100–>200. Also, the CC50 at 30 h post-transfection in “in vitro” is above 100 µM. Turning to `CSCC[C@@H](C=O)NC(=O)[C@H](CC(C)C)NC(=O)[C@H](CC(C)C)NC(C)=O` [Calpain Inhibitor II] (Ac-Leu-Leu-Met-aldehyde), the “Reported CC50” value in the series on cell culture is recorded as above 100 µM. Moreover, the CC50 in series [1] is above 100 µM. For the compound GRL-0496, the “Reported CC50” value in the series with cell culture was 81.0 µM. Further, in the series on SARS-CoV-2, the EC50 is 9.1 µM. In series [1], this compound displayed a CC50 of 53.2 µM. As to `COc1ccc2c(O[C@@H]3C[C@H]4C(=O)N[C@]5(C(=O)NS(=O)(=O)C6CC6)C[C@H]5/C=C\CCCCN(C)C(=O)[C@@H]4C3)cc(-c3nc(C(C)C)cs3)nc2c1C` [Simeprevir], in the series “in vitro”, the CC50 at 30 h post-transfection was found to be 19.6 µM.

As for `CCC[C@@H](C=O)NC(=O)[C@H](CC(C)C)NC(=O)[C@H](CC(C)C)NC(=O)OCc1ccccc1` [MG-115] (Cbz-Leu-Leu-[Nva]-aldehyde), in the series on cell culture, the “Reported CC50” value is 1.1 µM. Moreover, the CC50 in series [1] (setting [2]) was 11 µM. Take `Brc1c(Br)c(Br)c2n[nH]nc2c1Br` [TBB]: in the series on cell culture, the “Reported CC50” value is 8.9 µM. `Cc1c(O)cccc1C(=O)N[C@@H](CSc1ccccc1)[C@H](O)CN1C[C@H]2CCCC[C@H]2C[C@H]1C(=O)NC(C)(C)C` [Nelfinavir] had a CC50 in the series “in vitro” of 11.2 µM. With `O.O=C(OC[C@H]1O[C@@H](OC(=O)c2cc(O)c(O)c(O)c2)[C@H](OC(=O)c2cc(O)c(O)c(O)c2)[C@@H](OC(=O)c2cc(O)c(O)c(O)c2)[C@@H]1OC(=O)c1cc(O)c(O)c(O)c1)c1cc(O)c(O)c(O)c1` [penta-O-galloyl-beta-D-glucose hydrate], the “Reported CC50” value in the series with cell culture was 11.2 µM. In addition, the CC50 in series [1] was found to be 30.4 µM. Regarding `COc1cc(C)c2c(Oc3cccc(C(F)(F)F)c3)c(OC)cc(NC(C)CCCN)c2n1` (stereo not drawn) [Tafenoquine], the “Reported CC50” value in the series on cell culture is 37.2 µM. In the series “in vitro”, this compound showed a CC50 at 30 h post-transfection of 2 µM. For `Cc1cccc(C)c1OCC(=O)N[C@@H](Cc1ccccc1)[C@@H](O)C[C@H](Cc1ccccc1)NC(=O)[C@H](C(C)C)N1CCCNC1=O` [Lopinavir], the CC50 in “in vitro” stood at 29.1 µM. Take `CCC[C@@]1(CCc2ccccc2)CC(O)=C([C@H](CC)c2cccc(NS(=O)(=O)c3ccc(C(F)(F)F)cn3)c2)C(=O)O1` [Tipranavir]: the CC50 at 30 h post-transfection in the series “in vitro” stood at 85.1 µM. In the series “in vitro” (setting [3]), `Cc1ccc(NC(=O)c2ccc(CN3CCN(C)CC3)cc2)cc1Nc1nc(-c2cccnc2)cs1` [Masitinib] had a CC50 at 30 h post-transfection of 3 µM. Take `COc1cccc2c1C(=O)c1c(O)c3c(c(O)c1C2=O)C[C@@](O)(C(=O)CO)C[C@@H]3O[C@H]1C[C@H](N)[C@H](O)[C@H](C)O1` [doxorubicin]: the CC50 at 30 h post-transfection in “in vitro” (setting [3]) is 3.7 µM. The same measure, in the same setting: for `CCC[C@H](NC(=O)[C@@H]1[C@H]2CCC[C@H]2CN1C(=O)[C@@H](NC(=O)[C@@H](NC(=O)c1cnccn1)C1CCCCC1)C(C)(C)C)C(=O)C(=O)NC1CC1` [Telaprevir] the value was 71.5 µM. Take `CC(C)CN(C[C@@H](O)[C@H](Cc1ccccc1)NC(=O)O[C@H]1CO[C@H]2OCC[C@H]21)S(=O)(=O)c1ccc(N)cc1` [Darunavir]: the EC50 in the series with SARS-CoV-2 is 46.4 µM. On to `CC(C)(C)NC(=O)[C@@H]1CN(Cc2cccnc2)CCN1C[C@@H](O)C[C@@H](Cc1ccccc1)C(=O)N[C@H]1c2ccccc2C[C@H]1O` [Indinavir], for which the CC50 in “in vitro” was above 100 µM. Turning to `C=C[C@@H]1C[C@]1(NC(=O)[C@@H]1C[C@@H]2CN1C(=O)[C@H](C(C)(C)C)NC(=O)O[C@@H]1C[C@H]1CCCCCc1nc3ccc(OC)cc3nc1O2)C(=O)NS(=O)(=O)C1CC1` [Grazoprevir], the CC50 in series [1] worked out at 57.4 µM.

In turn, `O=c1cc(-c2ccccc2)oc2cc(O)c(O)c(O)c12` [Baicalein] displayed a CC50 in the series “in vitro” above 100 µM. `CC(C)CN(C[C@@H](O)[C@H](Cc1ccccc1)NC(=O)O[C@H]1CCOC1)S(=O)(=O)c1ccc(N)cc1` [Amprenavir] returned a CC50 at 30 h post-transfection in “in vitro” above 100 µM.
